In test [1] the target is T1, trypsin (Sus scrofa, UniProt P00761).
T1 construct: purchased Wako; host or cells: porcine pancreas (natural source)
The test can be described thus: Circular dichroism (CD) spectral titration of trypsin, Hill equation fit. As to conditions: trypsin 5 μM, CD at 237 nm, 25 °C, Tris–HCl buffer (50 mM Tris–HCl, 10 mM CaCl2, pH 8.0), read-out: association constant (K assoc) with trypsin (converted). The test is classed as binding. The source says:
We first investigated the effect of conjugation of molecular glues to BA on the binding affinity for trypsin. Trypsin is known to alter its conformation upon interaction with metal ions,[24] polymers[25] and proteins,[26] resulting in circular dichroism (CD) spectral changes. Upon mixing with Glue10–BA, trypsin also changed its CD spectrum. […] According to the reported method,[27],[28] we estimated the association constant (K assoc) of Glue10–BA with trypsin to be 5.5 × 10^5 M^–1 by fitting the fractions of bound trypsin (Fig. 3, red) to the Hill equation.[27],[28] […]
Fig. 3 Circular dichroism (CD) spectral titration profiles of trypsin (5 μM) at 237 nm with molecular glues Glue29–BA (brown; 0–2.5 μM), Glue10–BA (red; 0–7 μM), Glue10–Ph (green; 0–12 μM) and ^mGlue27–BA (purple; 0–50 μM), together with reference TEG–BA (blue; 0–200 μM), at 25 °C in Tris–HCl buffer (50 mM Tris–HCl, 10 mM CaCl2, pH 8.0). The fractions of bound trypsin were calculated from (I – I 0)/(I sat – I 0), where I 0, I and I sat represent the CD intensities before titration, observed with titrants and at the saturation point, respectively. […]
The association constants (K assoc) were calculated based on the Hill equation by plotting the fractions of bound trypsin versus the concentrations of a titrant. […]
On the technique in general: CD spectra are sensitive to the conformation of chiral molecules.

The target of test [2] is T1, trypsin. The test can be described thus: Trypsin activity assay (TAME hydrolysis, absorption at 247 nm). The test is classed as biochemical. As to conditions: trypsin 20 nM, TAME 1 mM. From the text: Trypsin hydrolyses peptide linkages at the carboxyl side of lysine and arginine residues.[29] As already described in Fig. 2a, this protease activity is inhibited by BA.[10] Considering the exceptionally high affinity of Glue29–BA for trypsin, we expected that this BA-appended molecular glue might be the best inhibitor among those listed in Fig. 1. However, as observed by dynamic light scattering (DLS; Fig. S12 ^†), trypsin/Glue29–BA, in contrast with other complexes such as trypsin/Glue10–BA and trypsin/Glue10–Ph, tends to form large aggregates (>200 nm), most likely due to the formation of physical crosslinks between its excessively long glue moiety and trypsin. […] We presume that the poor conformational flexibility of the in-chain Gu^+ units in the glue moiety hinders the ability of the conjugated BA terminus to properly block the substrate-binding site of trypsin. […]
To a Tris–HCl buffer (50 mM Tris–HCl, 10 mM CaCl2, pH 8.0) solution of trypsin (20 nM) was added a Tris–HCl buffer solution of TEG–BA, and the mixture was incubated at 25 °C for 1 min. […] The trypsin activity was determined using pseudo-first order reaction kinetics and normalized to that of untreated trypsin. The trypsin activities in the presence of Gluen–BA, ^mGluen–BA and Gluen–Ph were likewise evaluated.

The source of these data is PMC5489047, “Molecular glues for manipulating enzymes: trypsin inhibition by benzamidine-conjugated molecular glues” (Chemical Science, 2015).

T1 sequence (P00761 9-231): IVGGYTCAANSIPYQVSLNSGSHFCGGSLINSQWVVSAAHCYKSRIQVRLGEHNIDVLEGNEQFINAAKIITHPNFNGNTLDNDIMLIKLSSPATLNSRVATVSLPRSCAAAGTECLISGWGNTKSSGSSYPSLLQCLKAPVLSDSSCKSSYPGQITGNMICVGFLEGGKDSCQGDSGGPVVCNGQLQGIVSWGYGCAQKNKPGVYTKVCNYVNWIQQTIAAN

Regarding `[N-]=[N+]=NCCOCCOCCOCCNC(=O)CCCC(=O)Nc1ccc(C(=N)N)cc1` [TEG–BA], the Kd at trypsin [1] was 62.5 µM. Moreover, the “inhibition of TAME hydrolysis by trypsin at 10 μM” value against trypsin [2] (10 μM compound) was “did not exhibit detectable inhibition”. On trypsin [2] (25 °C, Tris–HCl buffer pH 8.0, read-out: half-maximal inhibitory concentration (IC50)), the IC50 came out at 79 µM.
